Source: PubChem BioAssay (NCI)
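Cells were grown in 96-well plates and exposed to each compound for 48 hours at five concentrations; endpoints were interpolated linearly between bracketing concentrations, or set to the highest concentration if not reached. GI50 is the concentration that inhibits growth by half. The concentration for full growth arrest is given as TGI.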

What was measured:
Assay in all cases: NCI-60 cell line screen, 48 h; in the data active = GI50 below about 0.43 µM; inactive = the rest
[1] = test system: SW-620 colon
[2] = test system: HOP-62 NSCLC
[3] = test system: OVCAR-3 ovarian
[4] = test system: UACC-62 melanoma
[5] = test system: RPMI-8226 leukemia
[6] = test system: TK-10 renal
[7] = test system: IGROV1 ovarian
[8] = test system: U251 CNS
[9] = test system: MDA-MB-468 breast
[10] = test system: SK-MEL-2 melanoma
[11] = test system: UO-31 renal
[12] = test system: M14 melanoma
[13] = test system: HCT-116 colon
[14] = test system: MDA-MB-435
[15] = test system: T-47D breast
[16] = test system: HCT-15 colon
[17] = test system: DU-145 prostate
[18] = test system: SNB-75 CNS
[19] = test system: BT-549 breast
[20] = test system: NCI/ADR-RES ovarian
[21] = test system: SN12C renal
[22] = test system: 786-0 renal
[23] = test system: PC-3 prostate
[24] = test system: OVCAR-4 ovarian
[25] = test system: SNB-19 CNS
[26] = test system: HT29 colon
[27] = test system: EKVX NSCLC
[28] = test system: MALME-3M melanoma
[29] = test system: K-562 leukemia
[30] = test system: NCI-H23 lung
[31] = test system: MDA-MB-231 breast
[32] = test system: SR leukemia
[33] = test system: SK-OV-3 ovarian
[34] = test system: OVCAR-5 ovarian
[35] = test system: NCI-H226 lung
[36] = test system: SF-539 CNS
[37] = test system: COLO 205 colon
[38] = test system: MOLT-4 leukemia
[39] = test system: MCF7 breast
[40] = test system: KM12 colon
[41] = test system: OVCAR-8 ovarian
[42] = test system: ACHN renal
[43] = test system: SF-268 CNS
[44] = test system: HCC-2998 colon
[45] = test system: UACC-257 melanoma
[46] = test system: HS 578T breast
[47] = test system: NCI-H522 lung
[48] = test system: SK-MEL-5 melanoma
[49] = test system: CAKI-1 renal
[50] = test system: LOX IMVI melanoma
[51] = test system: SF-295 CNS
[52] = test system: HL-60(TB) leukemia
[53] = test system: HOP-92 NSCLC
[54] = test system: SK-MEL-28 melanoma
[55] = test system: RXF 393 renal
[56] = test system: NCI-H460 lung
[57] = test system: A549 NSCLC
[58] = test system: A498 renal
[59] = test system: CCRF-CEM leukemia

CCCCSc1nc(Nc2ccc(/C(C)=N/NC(N)=S)cc2)c(C#N)c(-c2ccc(OC)cc2)n1
22.4 µM: TGI [58]
18.6 µM: TGI [11]
36.7 µM: TGI [15]
19.9 µM: TGI [8]
27.5 µM: TGI [35]
26.9 µM: TGI [19]
21.1 µM: TGI [53]
27.3 µM: TGI [25]
20 µM: TGI [28]
22.6 µM: TGI [51]
> 100 µM: TGI [1] | TGI [5] | TGI [12] | TGI [14] | TGI [16] | TGI [17] | TGI [20] | TGI [23] | TGI [26] | TGI [27] | TGI [29] | TGI [32] | TGI [37] | TGI [38] | TGI [39] | TGI [40] | TGI [43] | TGI [44] | TGI [45] | TGI [52] | TGI [54] | TGI [59]
inactive: GI50 [1] > 100 µM | GI50 [2] 15.6 µM | GI50 [3] 21.5 µM | GI50 [4] 15.6 µM | GI50 [5] 45.7 µM | GI50 [6] 13.8 µM | GI50 [7] 19.5 µM | GI50 [8] 6.88 µM | GI50 [9] 18.1 µM | GI50 [10] 26.3 µM | GI50 [11] 2.81 µM | GI50 [12] 8.52 µM | GI50 [13] 6.79 µM | GI50 [14] 36.9 µM | GI50 [15] 12.5 µM | GI50 [16] > 100 µM | GI50 [17] 10.2 µM | GI50 [18] 10.4 µM | GI50 [19] 6.55 µM | GI50 [20] 5.76 µM | GI50 [21] 18.7 µM | GI50 [22] 3.07 µM | GI50 [23] > 100 µM | GI50 [24] 6.45 µM | GI50 [25] 14.3 µM | GI50 [26] > 100 µM | GI50 [27] 56.4 µM | GI50 [28] 5.85 µM | GI50 [29] > 100 µM | GI50 [30] 6.46 µM | GI50 [31] 2.27 µM | GI50 [32] 57.1 µM | GI50 [33] 18 µM | GI50 [34] 28.1 µM | GI50 [35] 11.9 µM | GI50 [36] 3.14 µM | GI50 [37] > 100 µM | GI50 [38] > 100 µM | GI50 [39] 17.1 µM | GI50 [40] > 100 µM | GI50 [41] 10.8 µM | GI50 [42] 15.3 µM | GI50 [43] 26 µM | GI50 [44] 78.4 µM | GI50 [45] > 100 µM | GI50 [46] 2.78 µM | GI50 [47] 13.9 µM | GI50 [48] 3.61 µM | GI50 [49] 18.3 µM | GI50 [50] 3.9 µM | GI50 [51] 10.1 µM | GI50 [52] > 100 µM | GI50 [53] 5.36 µM | GI50 [54] 35.8 µM | GI50 [55] 5.2 µM | GI50 [56] 9.33 µM | GI50 [57] 16.5 µM | GI50 [58] 10.6 µM | GI50 [59] > 100 µM
93.9 µM: TGI [34]
8.21 µM: TGI [31]
17 µM: TGI [48]
16.4 µM: TGI [46]
12.8 µM: TGI [36]
40.9 µM: TGI [57]
49.1 µM: TGI [9]
37 µM: TGI [21]
19 µM: TGI [30]
28.6 µM: TGI [47]
18.1 µM: TGI [55]
17.9 µM: TGI [50]
34.1 µM: TGI [4]
44.3 µM: TGI [3]
30.1 µM: TGI [2]
24 µM: TGI [41]
32.1 µM: TGI [33]
62.4 µM: TGI [24]
54.1 µM: TGI [49]
28.5 µM: TGI [42]
10.9 µM: TGI [22]
78.3 µM: TGI [18]
30 µM: TGI [13]
27.4 µM: TGI [6]
31.1 µM: TGI [56]
40 µM: TGI [7]
85.4 µM: TGI [10]
